In patent publication US20170232083A1, “METHODS OF DIAGNOSIS AND TREATMENT OF CELIAC DISEASE IN CHILDREN” (priority 2014, published 2017):

Key:
[1] = tested on: PBMC (polyclonal gluten-specific T cells) of paediatric and adult CD patients; conditions: corresponding adult data shown for comparison (14); cited from earlier work
[2] = tested on: PBMC (polyclonal gluten-specific T cells) of paediatric and adult CD patients; experiment: IFN-γ ELISpot of PBMC after 3 day oral wheat challenge (SFU, % of maximal peptide response, dominance scores, EC50; Examples 5-6); type: cell-based, human; conditions: for Dominance score 3-5yrs (n = 9): CD children 3-5yrs, n = 9, following wheat challenge; for Dominance score 3-5yrs (n = 9) / Dominance score 6-10yrs (n = 10) / Dominance score 11-18yrs (n = 11): mean percentage of maximal peptide response; for Dominance score 6-10yrs (n = 10): CD children 6-10yrs, n = 10, following wheat challenge; for Dominance score 11-18yrs (n = 11): CD children 11-18yrs, n = 11, following wheat challenge; for Dominance score Mean all ages: CD children, following wheat challenge (Table 9); for dominance hierarchy across all age groups: Example 6; for Dominance scores 3-5 yrs: children with celiac disease 3-5 yrs after wheat challenge (Table 14); for Dominance scores 6-10 yrs: children with celiac disease 6-10 yrs after wheat challenge (Table 14); for Dominance scores 11-18 yrs: children with celiac disease 11-18 yrs after wheat challenge (Table 14); for Dominance scores Mean all ages: mean of all subjects (Table 14); for IFN-γ ELISpot response: after oral wheat challenge
[3] = patient A, 11-17 yrs, cut-off 10 SFU
[4] = patient D, max peptide 30.5 SFU
[5] = patient E, H, 11-17 yrs, cut-off 10 SFU
[6] = patient F, 11-17 yrs, cut-off 10 SFU
[7] = patient G, 11-17 yrs, cut-off 10 SFU
[8] = patient H (HLA-DQ2.5 homozygote), 3-5yrs, cut-off 10 SFU
[9] = patient H, 11-17 yrs, cut-off 10 SFU
[10] = patient ID not given, 11-17 yrs, cut-off 10 SFU
[11] = patient ID not given, max peptide 95 SFU
[12] = patient N, 3-5yrs, cut-off 10 SFU
[13] = patient P, 11-17 yrs, cut-off 21.6 SFU
[14] = patient Q, 11-17 yrs, cut-off 10 SFU
[15] = patient U, H, 11-17 yrs, cut-off 10 SFU
[16] = patient V, 6-10 yrs, cut-off 10 SFU
[17] = patient Y, 6-10 yrs, cut-off 10 SFU
[18] = patient eleven, 6-10 yrs, cut-off 10 SFU
[19] = patient eleven, max peptide 57 SFU
[20] = patient five, max peptide 48 SFU
[21] = patient seven, 6-10 yrs, cut-off 10.5 SFU
[22] = patient ten, 3-5yrs, cut-off 10 SFU
[23] = patient three, 6-10 yrs, cut-off 10.5 SFU
[24] = patient twelve, 11-17 yrs, cut-off 10 SFU
[25] = patient two, 3-5yrs, cut-off 10 SFU
[26] = patient two, max peptide 60 SFU

LPYPQPELPYPQP [Peptide W01]
Dominance scores 18+ yrs [1]: 69 | Dominance score 3-5yrs (n = 9) [2]: 68.5 | Dominance score 6-10yrs (n = 10) [2]: 71.7 | Dominance score 11-18yrs (n = 11) [2]: 51.0 | Dominance score Mean all ages [2]: 62.6 | dominance hierarchy across all age groupings ([2]; Example 5): most dominant three peptides | dominance hierarchy across all age groups [2]: most dominant four peptides | Dominance scores 3-5 yrs [2]: 65 | Dominance scores 6-10 yrs [2]: 72 | Dominance scores 11-18 yrs [2]: 51 | Dominance scores Mean all ages [2]: 62 | IFN-γ ELISpot response [2, 3]: 2 SFU | Significant response as percentage of maximal peptide SFU [2, 4]: ′′ (21-40% = ′′) | IFN-γ ELISpot response [2, 5]: 111 SFU | Significant response as percentage of maximal peptide SFU ([2]; patient E, max peptide 224 SFU): ′′′ (41-70% = ′′′) | IFN-γ ELISpot response [2, 6]: 161 SFU | Significant response as percentage of maximal peptide SFU ([2]; patient F, max peptide 178 SFU): + (>70% = +) | IFN-γ ELISpot response [2, 7]: 7 SFU | IFN-γ ELISpot response [2, 8]: 33 SFU | IFN-γ ELISpot response [2, 9]: 10 SFU | Significant response as percentage of maximal peptide SFU ([2]; patient H, max peptide 17 SFU): ′′′ (41-70% = ′′′) | IFN-γ ELISpot response [2, 10]: 62 SFU | Significant response as percentage of maximal peptide SFU [2, 11]: ′′′ (41-70% = ′′′) | Significant response as percentage of maximal peptide SFU ([2]; patient II, max peptide 15 SFU): + (>70% = +) | Significant response as percentage of maximal peptide SFU ([2]; patient J, max peptide 196 SFU): + (>70% = +) | Significant response as percentage of maximal peptide SFU ([2]; patient K, max peptide 53 SFU): + (>70% = +) | Significant response as percentage of maximal peptide SFU ([2]; patient L, max peptide 11 SFU): + (>70% = +) | Significant response as percentage of maximal peptide SFU ([2]; patient M, max peptide 48 SFU): ′′′ (41-70% = ′′′) | IFN-γ ELISpot response [2, 12]: 6 SFU | IFN-γ ELISpot response [2, 13]: 36 SFU | Significant response as percentage of maximal peptide SFU ([2]; patient P, max peptide 64 SFU): ′′′ (41-70% = ′′′) | IFN-γ ELISpot response [2, 14]: 78 SFU | Significant response as percentage of maximal peptide SFU ([2]; patient Q, max peptide 97 SFU): + (>70% = +) | IFN-γ ELISpot response [2, 15]: 44 SFU | Significant response as percentage of maximal peptide SFU ([2]; patient U, max peptide 81 SFU): ′′′ (41-70% = ′′′) | IFN-γ ELISpot response [2, 16]: 35 SFU | Significant response as percentage of maximal peptide SFU ([2]; patient V, max peptide 35 SFU): + (>70% = +) | IFN-γ ELISpot response [2, 17]: 16 SFU | Significant response as percentage of maximal peptide SFU ([2]; patient Y, max peptide 16 SFU): + (>70% = +) | IFN-γ ELISpot response [2, 18]: 45 SFU | Significant response as percentage of maximal peptide SFU [2, 19]: + (>70% = +) | Significant response as percentage of maximal peptide SFU [2, 20]: ′′′ (41-70% = ′′′) | IFN-γ ELISpot response ([2]; patient four, 3-5yrs, cut-off 10 SFU): 44 SFU | Significant response as percentage of maximal peptide SFU ([2]; patient four, max peptide 44 SFU): + (>70% = +) | IFN-γ ELISpot response [2, 21]: 3 SFU | IFN-γ ELISpot response [2, 22]: 9 SFU | IFN-γ ELISpot response [2, 23]: 196 SFU | IFN-γ ELISpot response [2, 24]: 12 SFU | IFN-γ ELISpot response [2, 25]: 33 SFU | Significant response as percentage of maximal peptide SFU [2, 26]: ′′′ (41-70% = ′′′)

LQPFPQPELPFPQP [Peptide W06]
Dominance scores 18+ yrs [1]: 15 | Dominance score 3-5yrs (n = 9) [2]: 53.1 | Dominance score 6-10yrs (n = 10) [2]: 52.7 | Dominance score 11-18yrs (n = 11) [2]: 53.8 | Dominance score Mean all ages [2]: 53.2 | dominance hierarchy across all age groups [2]: most dominant four peptides | Dominance scores 3-5 yrs [2]: 58 | Dominance scores 6-10 yrs [2]: 53 | Dominance scores 11-18 yrs [2]: 54 | Dominance scores Mean all ages [2]: 54 | IFN-γ ELISpot response [2, 3]: 5 SFU | Significant response as percentage of maximal peptide SFU [2, 4]: ′′′ (41-70% = ′′′) | IFN-γ ELISpot response [2, 5]: 103 SFU | Significant response as percentage of maximal peptide SFU ([2]; patient E, max peptide 224 SFU): ′′′ (41-70% = ′′′) | IFN-γ ELISpot response [2, 6]: 107 SFU | Significant response as percentage of maximal peptide SFU ([2]; patient F, max peptide 178 SFU): ′′′′ | IFN-γ ELISpot response [2, 7]: 7 SFU | IFN-γ ELISpot response [2, 8]: 41 SFU | IFN-γ ELISpot response [2, 9]: 16 SFU | Significant response as percentage of maximal peptide SFU ([2]; patient H, max peptide 17 SFU): + (>70% = +) | IFN-γ ELISpot response [2, 10]: 59 SFU | Significant response as percentage of maximal peptide SFU [2, 11]: ′′′ (41-70% = ′′′) | Significant response as percentage of maximal peptide SFU ([2]; patient II, max peptide 15 SFU): + (>70% = +) | Significant response as percentage of maximal peptide SFU ([2]; patient J, max peptide 196 SFU): ′′′ (41-70% = ′′′) | Significant response as percentage of maximal peptide SFU ([2]; patient K, max peptide 53 SFU): ′′ (21-40% = ′′) | Significant response as percentage of maximal peptide SFU ([2]; patient M, max peptide 48 SFU): + (>70% = +) | IFN-γ ELISpot response [2, 12]: 4 SFU | IFN-γ ELISpot response [2, 13]: 33 SFU | Significant response as percentage of maximal peptide SFU ([2]; patient P, max peptide 64 SFU): ′′′ (41-70% = ′′′) | IFN-γ ELISpot response [2, 14]: 65 SFU | Significant response as percentage of maximal peptide SFU ([2]; patient Q, max peptide 97 SFU): ′′′ (41-70% = ′′′) | IFN-γ ELISpot response [2, 15]: 54 SFU | Significant response as percentage of maximal peptide SFU ([2]; patient U, max peptide 81 SFU): ′′′′ | IFN-γ ELISpot response [2, 16]: 22 SFU | Significant response as percentage of maximal peptide SFU ([2]; patient V, max peptide 35 SFU): ′′′ (41-70% = ′′′) | IFN-γ ELISpot response [2, 17]: 6 SFU | Significant response as percentage of maximal peptide SFU ([2]; patient Z, max peptide 13 SFU): ′′ (21-40% = ′′) | IFN-γ ELISpot response [2, 18]: 43 SFU | Significant response as percentage of maximal peptide SFU [2, 19]: + (>70% = +) | Significant response as percentage of maximal peptide SFU [2, 20]: ′′ (21-40% = ′′) | IFN-γ ELISpot response [2, 21]: 15 SFU | Significant response as percentage of maximal peptide SFU ([2]; patient seven, max peptide 27 SFU): ′′′ (41-70% = ′′′) | IFN-γ ELISpot response ([2]; patient six, 3-5yrs, cut-off 10 SFU): 12 SFU | Significant response as percentage of maximal peptide SFU ([2]; patient six, max peptide 13 SFU): + (>70% = +) | IFN-γ ELISpot response [2, 22]: 10 SFU | Significant response as percentage of maximal peptide SFU ([2]; patient ten, max peptide 14.5 SFU): + (>70% = +) | IFN-γ ELISpot response [2, 23]: 112 SFU | IFN-γ ELISpot response [2, 24]: 13 SFU | IFN-γ ELISpot response [2, 25]: 26 SFU | Significant response as percentage of maximal peptide SFU [2, 26]: ′′′ (41-70% = ′′′)
